# In patent US20220202739A1, “ENDOCANNABINOID MIMETIC AND ANTI-INFLAMMATORY COMPOUND CONTAINING COMPOSITIONS, METHODS OF PREPARATION AND USES THEREOF” (priority 2019, published 2022):
# Read-outs that look alike come from different tables or passages of the source.
# Test system: PPARG
# Test: Gene expression custom microarray, human skin fibroblasts (Example 1): PPARG
# Assay type: cell-based
# Settings: for fold induction at 10 µM: Skin fibroblast, read-out: PPARG↑ gene expression, fold increase or decrease vs untreated cells
# Description: Cell cultures: A human skin fibroblast cell culture (or cultures) was obtained through the Coriell Cell Repository from the National Institute on Aging Cell Repository (Camden, N.J.), or Promocell GmbH (Heidelberg, Germany). The initial culture was selected from the following cell lines: AG13066, AG11557, AG11796 or GM03651E. The cell lines were derived from donors as follows:
# Experimental phase: When the appropriate quantity of cells had been grown, they were detached as described above, but at the final step were seeded into each well of one or more 6 well dishes. Each well received 2 ml of the cell suspension so they were seeded equally. The dishes were returned to the incubator until 85-95% confluency was reached.
# It is at this stage that all wells were rinsed in PBS after aspirating the growth media. The compound(s) to be tested were previously mixed into a suitable solvent (e.g., DMSO or ethanol) that can be diluted to the desired concentration of test compound (10 μl) in the culture wells without exceeding maximum solvent concentrations and adversely effecting cell viability, and mixed with basal media. NOTE: Standard maximum levels of solvent are 0.1% for DMSO and 0.5% for ETOH.
# Every 2 wells on the 6 well plate served as a biological replicate for the purposes of RNA isolation and genetic expression evaluations making each 6 well dish an n=3 for the test compound(s) contained in the media. Negative control plates (no test compound(s) and only basal media) were also generated. The plates were returned to the incubator for 24 hrs.
# At the end of the 24 hr time period, the plates were removed from the incubator, the test media aspirated, and the cells rinsed with PBS. RNA isolation is performed using the BioRad Aurum Total RNA Mini Kit (Hercules, Calif.) per manufacturer's protocol; which is described, in brief, below: • Add 350 μl of lysis buffer to each well. Pipet multiple times to ensure thorough lysis. Add lysed cells to the collection tube. • Add 350 μl of 70% ETOH to the collection tube and mix thoroughly. • Pipet the generated lysate onto the spin column placed in a new 2 ml tube. Centrifuge for 30 sec between 8,000 and 10,000 g. • Place the spin column containing the now bound RNA, in a new 2 ml tube. Add 700 μl of low stringency wash solution to the spin column. Centrifuge for 30 sec between 8,000 and 10,000 g. Discard the flow through and replace spin column. • Add 80 μl of DNase I dilution to the spin column and incubate at room temperature for 15 minutes. • Add 700 μl of high stringency wash solution to the column and centrifuge for 30 sec between 8,000 and 10,000 g. Discard flow through. • Add 700 μl of low stringency wash solution to the column and centrifuge for 60 sec between 8,000 and 10,000 g. Discard flow through. • Centrifuge for 2 minutes to remove residual wash solution. • Transfer spin column to new 1.5 ml collection tube and add 80 μl of elution solution to the column. Allow 1 minute for saturation of the membrane and then centrifuge for 2 minutes to complete the RNA elution. • Quantify the quantity of RNA and store at −20 C° until use (no more than 1 month)
# The genes tested were: • Cannabinoid receptor 1 (CB1(CNR1)) • Cannabinoid receptor 2 (CB2 (CNR2)) • Fatty acid amide hydrolase (FAAH) • Monoacylglycerol lipase (MGLL, i.e., MAGL) • Peroxisome proliferator-activated receptor gamma (PPARG) • Nuclear factor kappa-light-chain-enhancer of activated B cells (NFκβ) • Interleukin 1 Alpha (IL1alpha) • Cyclooxygenase 1 (PTGS1, i.e., COX1) • Transient receptor potential cation channel subfamily A member 1 (TRPA1) • Transient receptor potential cation channel subfamily V member 1 (TRPV1) • Transient receptor potential cation channel subfamily M member 8 (TRPM8) • Hemoglobin Subunit Beta (HBB) REFERENCE GENE • Ribosomal Protein L13a (RPL13A) REFERENCE GENE
# [1] = human skin fibroblasts, 10 uM, 24 hr
structure (smiles),measurement,setting,value
"C=C(C)[C@@H]1CCC(C)=C[C@H]1c1c(O)cc(CCCCC)cc1O [CBD, cannabidiol, reference compound]",fold induction at 10 µM,"Homo sapiens, 24 h",8.1
CCCCCCCCCCCCCCCC(=O)NCCO [N-palmitoylethanolamide],"PPARG↑ gene expression, fold increase or decrease vs untreated cells",[1],2.6 fold
CC(C)[C@]12O[C@H]1[C@@H]1O[C@]13[C@]1(O[C@H]1C[C@H]1C4=C(CC[C@@]13C)C(=O)OC4)[C@@H]2O [Triptolide],fold induction at 10 µM,[1],1.1
